These results are taken from patent US12622966B2, “Compound for photothermal cancer therapy, composition including the same, and method for photothermal cancer therapy” (PUKYONG NATIONAL UNIVERSITY INDUSTRY-UNIVERSITY COOPERATION …, priority 2022, dated 2026).

A short description of data set [1]: UV-Vis absorption in DMSO. It is filed as physicochemical. The following applies: for λabs, absorption wavelength: in DMSO. How it is done: FIG. 2 illustrates UV-Vis absorption (solid line) and fluorescence emission (dotted line) spectra of NI1 (60 μM) and NI2 (40 μM) in DMSO according to an embodiment of the present disclosure;
In the UV-Vis spectrum of FIG. 2 and Table 1, an absorption peak of NI1 has a tendency of red-shift absorption (λabs=728 nm, in DMSO) compared to NI2 (λabs=690 nm, in DMSO) in an organic solvent. […] The molar absorption coefficient (8) of NI1 is relatively lower than that of NI2, which generates a conjugate in a free pair of electrons of an —NH group due to the introduction of a phenyl group in NI2 and may reduce an ICT effect from an electron donor group to an electron acceptor group compared to NI1.

A short description of data set [2]: Photothermal conversion efficiency. It counts as physicochemical. More on the design: η (THF), photothermal conversion efficiency: concentration or dose not given beside the values. The following applies: for η (DMSO), photothermal conversion efficiency: in DMSO; for η (THF), photothermal conversion efficiency: in THF; for η (NPs), photothermal conversion efficiency: nanoparticles (nanoaggregates). How it is done: FIGS. 3A, 3B, and 3C relate to the thermal reaction of NI2 NPs according to 691 nm laser irradiation at 1 W/cm^2 and 1.5 W/cm^2 according to an embodiment of the present disclosure. FIG. 3A illustrates temperature rise measured in NI2 NPs at various concentrations (0 for distilled water, 25, 50, 75, and 100 μM) after irradiation for 150 seconds (N=4); FIG. 3B illustrates photothermal convergence efficiency (PCE) of NI2 NPs (100 μM) in 4 ON/OFF cycles of laser irradiation (ON/OFF time=150 s/450 s; duty cycle=25%); and FIG. 3C illustrates infrared thermal images of NI2 NPs (100 μM) captured at various irradiation times (scale bar=5 mm);
FIGS. 3A, 3B and 3C show quantitative analysis results of the photothermal characteristics and photothermal conversion efficiency of NI2 nanoparticles according to various concentrations and laser irradiation times in a 691 nm laser (1 W/cm^2 and 1.5 W/cm^2) irradiation of NI2 nanoparticles. When the concentration of the NI2 solution (in D.W.) was changed from 0 to 100 μM, it could be seen that the temperature increased in proportion to the concentration when the temperature change of the NI2 solution was measured after absorption for 150 seconds. That is, in FIG. 3A, it may be seen that a temperature increase (ΔT) changes linearly after irradiation for 150 seconds (R^2=0.98 to 0.99), and the maximum temperature of the NI2 NP was 42.8±2.8° C. and 54.4±0.5° C. for 1 W/cm^2 and 1.5 W/cm^2 at 100 μM, respectively. […] In FIG. 3C, it may be seen in the captured sequential thermal images showing the “spatio-temporal distribution” in the temperature area.

As to `CNc1ccc(N=C2C(=C(C#N)C#N)c3ccccc3C2=C(C#N)C#N)cc1` [NI1], in data set [1], the “ε, molar absorption coefficient” value is reported as 12.0 ×10^3 and the “λabs, absorption wavelength” value amounted to 728 nm. Moreover, in data set [2], the “η (DMSO), photothermal conversion efficiency” value turned out to be 50.3%; the “η (THF), photothermal conversion efficiency” value came to 31.4%; the “η (NPs), photothermal conversion efficiency” value was 58.3%.
For the compound `N#CC(C#N)=C1C(=Nc2ccc(Nc3ccccc3)cc2)C(=C(C#N)C#N)c2ccccc21` [NI2], in data set [1], the “ε, molar absorption coefficient” value is listed as 15.6 ×10^3 and the “λabs, absorption wavelength” value is on record as 690 nm. Also, in data set [2], the “η (DMSO), photothermal conversion efficiency” value is on record as 52.1%; the “η (THF), photothermal conversion efficiency” value is 32.4%; the “η (NPs), photothermal conversion efficiency” value came to 92.5%.
